Results: paper PMC8232238 (Cells, 2021)

Key:
Assay type in all cases: biochemical
HDAC11 = biological target: T1, HDAC11 (Homo sapiens, UniProt Q96DB2); assay: HDAC11 enzyme inhibition assay (single point and 10-dose IC50, Reaction Biology)
T1 construct: purchased Reaction Biology corporation (contract assay)
T1 sequence (Q96DB2 1-347): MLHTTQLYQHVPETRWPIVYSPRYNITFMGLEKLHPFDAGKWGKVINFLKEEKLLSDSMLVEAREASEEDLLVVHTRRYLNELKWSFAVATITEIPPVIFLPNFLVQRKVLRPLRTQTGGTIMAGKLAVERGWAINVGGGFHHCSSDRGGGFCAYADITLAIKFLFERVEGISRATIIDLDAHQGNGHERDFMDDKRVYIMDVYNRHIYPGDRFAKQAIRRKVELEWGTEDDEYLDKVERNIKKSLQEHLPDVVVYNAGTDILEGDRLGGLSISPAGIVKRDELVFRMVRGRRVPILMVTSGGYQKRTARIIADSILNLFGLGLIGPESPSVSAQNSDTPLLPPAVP
Procedure: (§1) Against HDAC6, inhibition was determined using 0.01 µM of the inhibitor.
All IC50 measurements we performed by Reaction Biology corporation. Compounds were tested in […]
dilution starting at 1 uM.
Substrate for HDAC11: 50 uM Fluorogenic HDAC Class2a Substrate […]
(Trifluoroacetyl Lysine).
(RHK(Ac)K(Ac)AMC). IC50 values were calculated using the GraphPad Prism 4 program based on a sigmoidal dose-response equation. […]

HDAC6 = biological target: T2, HDAC6 (Homo sapiens, UniProt Q9UBN7); assay: HDAC6 enzyme inhibition assay (single point and 10-dose IC50, Reaction Biology)
T2 construct: purchased Reaction Biology corporation (contract assay)
T2 sequence (Q9UBN7 1-1215): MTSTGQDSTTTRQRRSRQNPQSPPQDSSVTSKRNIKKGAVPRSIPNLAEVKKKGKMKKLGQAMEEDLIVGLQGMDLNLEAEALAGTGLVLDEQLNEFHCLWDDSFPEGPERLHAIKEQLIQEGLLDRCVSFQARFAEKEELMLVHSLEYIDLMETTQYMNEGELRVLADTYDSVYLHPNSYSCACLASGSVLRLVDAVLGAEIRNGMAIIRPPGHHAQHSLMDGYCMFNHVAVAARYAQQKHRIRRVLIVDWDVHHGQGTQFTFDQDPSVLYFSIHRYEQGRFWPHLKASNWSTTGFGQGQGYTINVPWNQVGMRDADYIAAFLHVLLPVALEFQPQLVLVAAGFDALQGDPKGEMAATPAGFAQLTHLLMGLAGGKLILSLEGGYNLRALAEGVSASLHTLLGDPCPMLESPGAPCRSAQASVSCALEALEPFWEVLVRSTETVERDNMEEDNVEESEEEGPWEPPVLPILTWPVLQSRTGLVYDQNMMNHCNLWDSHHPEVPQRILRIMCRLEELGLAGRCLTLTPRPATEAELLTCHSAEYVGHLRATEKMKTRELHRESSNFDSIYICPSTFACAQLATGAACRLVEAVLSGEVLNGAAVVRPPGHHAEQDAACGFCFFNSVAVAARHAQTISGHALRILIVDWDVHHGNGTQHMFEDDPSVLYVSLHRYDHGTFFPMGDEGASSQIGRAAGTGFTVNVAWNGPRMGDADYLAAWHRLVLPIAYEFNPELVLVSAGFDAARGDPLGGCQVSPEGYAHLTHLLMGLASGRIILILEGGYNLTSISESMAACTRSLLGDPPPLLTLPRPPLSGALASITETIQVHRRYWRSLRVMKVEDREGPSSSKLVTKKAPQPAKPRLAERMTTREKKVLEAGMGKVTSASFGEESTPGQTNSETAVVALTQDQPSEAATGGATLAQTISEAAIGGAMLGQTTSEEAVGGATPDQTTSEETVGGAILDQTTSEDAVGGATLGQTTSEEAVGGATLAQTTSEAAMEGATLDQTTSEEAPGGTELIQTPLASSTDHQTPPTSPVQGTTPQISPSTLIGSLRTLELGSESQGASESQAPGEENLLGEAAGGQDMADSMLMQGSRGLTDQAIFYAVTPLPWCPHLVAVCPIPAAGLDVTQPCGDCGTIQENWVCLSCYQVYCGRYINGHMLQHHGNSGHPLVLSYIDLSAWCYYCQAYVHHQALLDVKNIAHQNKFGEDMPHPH
Procedure: as §1
(§2) All IC50 measurements we performed by Reaction Biology corporation. Compounds were tested in
(§3) dilution starting at 1 uM. […]
(§4) (RHK(Ac)K(Ac)AMC). IC50 values were calculated using the GraphPad Prism 4 program based on a
(§5) sigmoidal dose-response equation. […]

HDAC8 = biological target: T3, HDAC8 (Homo sapiens, UniProt Q9BY41); assay: HDAC8 enzyme inhibition assay (single point and 10-dose IC50, Reaction Biology)
T3 construct: purchased Reaction Biology corporation (contract assay)
T3 sequence (Q9BY41 1-377): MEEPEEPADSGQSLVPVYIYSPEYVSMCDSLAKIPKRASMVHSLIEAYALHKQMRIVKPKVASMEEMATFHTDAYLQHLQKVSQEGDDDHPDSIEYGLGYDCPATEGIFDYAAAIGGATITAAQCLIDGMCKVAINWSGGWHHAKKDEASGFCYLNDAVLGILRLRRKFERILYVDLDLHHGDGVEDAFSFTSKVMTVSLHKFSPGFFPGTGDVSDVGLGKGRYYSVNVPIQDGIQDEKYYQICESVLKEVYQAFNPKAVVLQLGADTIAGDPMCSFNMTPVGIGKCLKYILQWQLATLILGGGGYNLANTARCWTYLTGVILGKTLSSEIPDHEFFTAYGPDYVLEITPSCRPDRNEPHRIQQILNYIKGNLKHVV
Procedure: as §1, §2, §3, §4, §5

[1] = average of two independent measurements
[2] = single point, inhibitor 1.0 μM, average of two measurements, ±2%

IC50 (HDAC11; [1]): 290 ± 35 nM | Selectivity factor (SF) HDAC11 against HDAC6 (HDAC11; selectivity for HDAC6 over HDAC11): 290 | HDAC11 average enzyme isoform activity (percentage of full enzyme activity) (HDAC11; [2]): 67.5% | IC50 (HDAC6; [1]): 1 ± 0.005 nM | HDAC6 average enzyme isoform activity (percentage of full enzyme activity) (HDAC6; single point, inhibitor 0.01 μM, average of two measurements, ±2%): 20.4% | IC50 (HDAC8; [1]): 2950 ± 460 nM | Selectivity factor (SF) HDAC8 against HDAC6 (HDAC8; selectivity for HDAC6 over HDAC8): 2950 | HDAC8 average enzyme isoform activity (percentage of full enzyme activity) (HDAC8; [2]): 69.3%
Structure (SMILES): O=C(CCCCCN1C(=O)c2cccc3cc(NC(=O)c4ccccc4)cc(c23)C1=O)NO [KNH019]
